Results from publication PMC7395068, “The evolution of strategies to minimise the risk of human drug-induced liver injury (DILI) in drug discovery and development” (Archives of Toxicology, 2020).
Where two headings read alike, the source gives them in different places.

How the values were obtained:
hLiMTs [1] = conditions: cited from earlier work
[2] = cited from earlier work; for DILI severity category (Chen 2016): human DILI classification, LTKB DILIrank
HepG2 cells [3] = conditions: cited from earlier work
hLiMTs [4] = assay: Combined HCI (HCS) and cellular ATP 3D assay in hLiMTs; conditions: for AC50 / minimal effective concentration: Homo sapiens
HepaRG spheroids = assay: Combined HCI (HCS) and cellular ATP 3D assay in HepaRG spheroids; conditions: for AC50 / minimal effective concentration: Homo sapiens
[5] = read-out: Human plasma Cmax; total plasma Cmax.tot, median of 9 literature references; cited from earlier work
[6] = test system: HepG2 C3A spheroid, BSEP, Glu/Gal in HepG2 cells, bioactivation; conditions: cited from earlier work
human hepatocytes = conditions: cited from earlier work
[7] = plasma free fraction; cited from earlier work
[8] = cited from earlier work
HepG2 cells [9] = conditions: cited from earlier work; remark: listed apart in the source
rBsep = conditions: In vitro Assay; ref Dawson 2012; cited from earlier work
[10] = Plasma free fraction (fu) and unbound Cmax (Cmax,u); format: in vitro ADME, human; conditions: unbound plasma Cmax
[11] = test system: THLE-Null and THLE-3A4 cells; conditions: In vitro Assay; ref Gustafsson 2014; cited from earlier work
[12] = test system: primary human hepatocytes, NIH3T3 fibroblasts, BSEP, CYP3A4; conditions: cited from earlier work
PHH = conditions: cited from earlier work
[13] = test system: HepG2 cells, primary human hepatocytes; conditions: In vitro Assay; ref Garside 2014; cited from earlier work
[14] = ref Chen 2011; cited from earlier work
[15] = In vitro Assay, ref Proctor 2017
[16] = In vitro Assay, ref Persson 2013
[17] = Microtissue model structural based (HCI), combined HCS and ATP, MEC < 25 × Cmax.tot cut-off
[18] = In vitro Assay, ref Schadt 2015

hLiMTs <25x Avg Cmax ATP (hLiMTs [4]; hLiMTs, ATP endpoint, cut-off <25x Avg Cmax): +ve | hLiMTs <100x Avg Cmaxu ATP (hLiMTs [4]; hLiMTs, ATP endpoint, cut-off <100x Avg Cmaxu): -ve | hLiMTs <25x Avg Cmax HCS (hLiMTs [4]; hLiMTs, HCS endpoints, cut-off <25x Avg Cmax): +ve | hLiMTs <100x Avg Cmaxu HCS (hLiMTs [4]; hLiMTs, HCS endpoints, cut-off <100x Avg Cmaxu): -ve | hLiMTs <25x Avg Cmax All (hLiMTs [4]; hLiMTs, all endpoints (ATP and HCS), cut-off <25x Avg Cmax): +ve | hLiMTs Cmax max All (hLiMTs [4]; hLiMTs, all endpoints, Cmax max used): +ve | hLiMTs Cmax min All (hLiMTs [4]; hLiMTs, all endpoints, Cmax min used): +ve | hLiMTs <10 uM All (hLiMTs [4]; hLiMTs, all endpoints, cut-off <10 uM): +ve (<10 uM) | hLiMTs <100x Avg Cmaxu All (hLiMTs [4]; hLiMTs, all endpoints, cut-off <100x Avg Cmaxu): -ve | HepaRG <25x Avg Cmax ATP (HepaRG spheroids; HepaRG, ATP endpoint, cut-off <25x Avg Cmax): +ve | HepaRG <100x Avg Cmaxu ATP (HepaRG spheroids; HepaRG, ATP endpoint, cut-off <100x Avg Cmaxu): -ve | HepaRG <25x Avg Cmax HCS (HepaRG spheroids; HepaRG, HCS endpoints, cut-off <25x Avg Cmax): +ve | HepaRG <100x Avg Cmaxu HCS (HepaRG spheroids; HepaRG, HCS endpoints, cut-off <100x Avg Cmaxu): -ve | HepaRG <25x Avg Cmax All (HepaRG spheroids; HepaRG, all endpoints (ATP and HCS), cut-off <25x Avg Cmax): +ve | HepaRG Cmax max All (HepaRG spheroids; HepaRG, all endpoints, Cmax max used): +ve | HepaRG Cmax min All (HepaRG spheroids; HepaRG, all endpoints, Cmax min used): +ve | HepaRG <10 uM All (HepaRG spheroids; HepaRG, all endpoints, cut-off <10 uM): -ve | HepaRG <100x Avg Cmaxu All (HepaRG spheroids; HepaRG, all endpoints, cut-off <100x Avg Cmaxu): -ve | Human plasma Cmax,u [10]: 29 nM
Compound: CCc1ccc(CCOc2ccc(CC3SC(=O)NC3=O)cc2)nc1 (stereo not shown) [pioglitazone, reference compound]
hLiMTs ATP <100uM (hLiMTs [1]; [15]): -VE | hLiMTs/100xCmax, Proctor (2017) (hLiMTs [1]; hLiMTs, ATP, IC50 < 100 × Cmax.tot, ref Proctor et al. 2017): -VE | hLiMTs/100uM, Proctor (2017) (hLiMTs [1]; hLiMTs, ATP, IC50 threshold 100 µM, ref Proctor et al. 2017): -VE | DILI severity category (Chen et al. [2016]) ([2]; LTKB DILIrank category, ref Chen et al. 2016): Less | DILI severity category (Chen 2016) ([2]; ref Chen et al. 2016): Less | DILI severity category (Chen 2016) ([2]; ref Chen et al. 2016, listed as Pioglitazone): Less DILI severity | DILI severity category ([2]; human DILI severity, ref Chen et al.): Less | DILI +VE (5-8), DILI -VE (-4) ([2]; ref Chen 2016): +VE | DILI severity category ([2]; ref Chen 2016): vLess-DILI-Concern | Cluser analysis (HepG2 cells [3]; [16]): -VE | Structural based (HCI) (HepG2 cells [3]; [16]): +VE | DILI in vitro assay prediction, Persson (2013) (HepG2 cells [3]; Structural based (HCI), HepG2, ref Persson et al. 2013): -VE | AC50 (hLiMTs [4]; read-out: ATP endpoint AC50): 106 µM | minimal effective concentration (hLiMTs [4]; read-out: ATP endpoint MEC): 38.1 µM | AC50 (hLiMTs [4]; read-out: HCS endpoint AC50): 9.95 µM | minimal effective concentration (hLiMTs [4]; read-out: HCS endpoint MEC): 5.35 µM | DILI prediction hLiMTs (HCS-MEC) (hLiMTs [4]; [17]): +VE (MEC < 25 × Cmax.tot cut-off) | AC50 (HepaRG spheroids; HepaRG, read-out: ATP endpoint AC50): 67.5 µM | minimal effective concentration (HepaRG spheroids; HepaRG, read-out: ATP endpoint MEC): 44.7 µM | AC50 (HepaRG spheroids; HepaRG, read-out: HCS endpoint AC50): 93.7 µM | minimal effective concentration (HepaRG spheroids; HepaRG, read-out: HCS endpoint MEC): 39.2 µM | DILI prediction HepaRG spheroids (HCS-MEC) (HepaRG spheroids; [17]): +VE (MEC < 25 × Cmax.tot cut-off) | Cmax [5]: 2950 nM | Bayesian Machine Learning DILI prediction, Williams (2019) ([6]; Bayesian modeling, ref Williams et al. 2019): +VE | Bayesian Machine Learning ([6]; In vitro Assay, ref Williams 2019): +VE | Structural based (HCI) (human hepatocytes; In vitro Assay, ref Xu 2008): -VE | DILI in vitro assay prediction, Xu (2008) (human hepatocytes; Structural based (HCI), human hepatocytes, ref Xu et al. 2008): -VE | fu [7]: 0.010 | Assigned DILI category ([8]; Chen et al. 2016 or literature alignment, ref Chen et al. 2016): 2 | In vivo DILI ([8]; […]): -VE | In vivo DILI ([8]; ref Dawson 2012): +VE | In vivo DILI ([8]; ref Garside 2014): +VE | in vivo DILI categorisation in the literature ([8]; ref Garside et al. 2014, Proctor et al. 2017, Gustafsson et al. 2014): in vivo DILI positive | In vivo DILI ([8]; ref Gustafsson 2014): +VE | In vivo DILI ([8]; ref O'Brien 2006): -VE | in vivo DILI categorisation in the literature ([8]; ref O'Brien et al. 2006, Xu et al. 2008, Dawson et al. 2012, Persson et al. 2013): non-DILI potential | In vivo DILI ([8]; ref Persson 2013): -VE | In vivo DILI ([8]; ref Proctor 2017): +VE | In vivo DILI ([8]; ref Schadt 2015): +VE | In vivo DILI ([8]; ref Williams 2019): +VE | In vivo DILI ([8]; ref Xu 2008): -VE | Structural based (HCI) (HepG2 cells [9]; In vitro Assay, ref O'Brien 2006): +VE | DILI in vitro assay prediction, O'Brien (2006) (HepG2 cells [9]; Structural based (HCI), HepG2, ref O'Brien et al. 2006): -VE | Inhibition of rBsep cutoff<1& cmax u>.2 (rBsep): +VE | Inhibition of rBsep cutoff<3 (rBsep): +VE | THLE-Null [11]: -VE | THLE-Null/3A4 [11]: -VE | DILI in vitro assay prediction, Schadt (2015) ([12]; BSEP & Metabolism based, ref Schadt et al. 2015): +VE | Cellular toxicity (3T3 cells) [12, 18]: -VE | Combined Assay [12, 18]: +VE | GSH adduct HML [12, 18]: -VE | Hepatocyte cellular toxicity [12, 18]: +VE | MitoTox 3T3 [12, 18]: -VE | TDI CYP3A4 [12, 18]: -VE | hBSEP inhibition [12, 18]: +VE | PHH/100xCmax, Proctor (2017) (PHH; 2D PHH, ATP, IC50 < 100 × Cmax.tot, ref Proctor et al. 2017): -VE | PHH/100uM, Proctor (2017) (PHH; 2D PHH, ATP, IC50 threshold 100 µM, ref Proctor et al. 2017): -VE | PHH ATP <100uM (PHH; [15]): -VE | Cluster 1-6 +VE Assay [13]: +VE | DILI Score (FDA) (1-8) [14]: 3
